Our source for the Ki and EC50 values is ChEMBL document CHEMBL1136512, “Discovery of a novel series of 6-azauracil-based thyroid hormone receptor ligands: potent, TR beta subtype-selective thyromimetics” (Bioorg Med Chem Lett, 2003).

Each structure is given as a SMILES string.

The target in one assay is T1, Thyroid hormone receptor beta (Homo sapiens, UniProt P10828).
T1 sequence (P10828 whole entry): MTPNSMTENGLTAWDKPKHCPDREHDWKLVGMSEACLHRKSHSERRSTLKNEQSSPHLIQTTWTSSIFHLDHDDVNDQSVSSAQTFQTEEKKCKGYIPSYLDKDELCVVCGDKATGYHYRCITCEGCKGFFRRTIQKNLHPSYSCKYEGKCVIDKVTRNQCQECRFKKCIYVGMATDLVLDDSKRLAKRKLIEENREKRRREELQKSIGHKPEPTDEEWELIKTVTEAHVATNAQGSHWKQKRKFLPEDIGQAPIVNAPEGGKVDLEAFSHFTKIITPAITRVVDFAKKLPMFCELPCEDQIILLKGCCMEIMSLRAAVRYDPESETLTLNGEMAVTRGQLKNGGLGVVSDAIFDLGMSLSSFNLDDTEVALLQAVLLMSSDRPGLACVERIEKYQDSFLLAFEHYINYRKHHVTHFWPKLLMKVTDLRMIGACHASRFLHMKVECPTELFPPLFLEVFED
With `CC1(C)C2CCC(NC(=O)c3cc(Oc4c(Cl)cc(-n5ncc(=O)[nH]c5=O)cc4Cl)ccc3O)C1C2` (stereo in doubt; 9j), the Ki (commonly the dissociation constant of the complex between target and ligand, obtained from inhibition or displacement) came to 0.04 nM. In other words, the picomolar range. In turn, `O=C(c1cc(Oc2c(Cl)cc(-n3ncc(=O)[nH]c3=O)cc2Cl)ccc1O)N1CC2CCC1C2` (stereo in doubt; 9h (R)-(+)) returned a Ki of 0.37 nM. `O=c1cnn(-c2cc(Cl)c(Oc3ccc(O)c(S(=O)(=O)N4C5CCC4CC4(CCCO4)C5)c3)c(Cl)c2)c(=O)[nH]1` (stereo unspecified) had a Ki of 0.28 nM. In turn, `O=C(NC1CCC1)c1cc(Oc2c(Cl)cc(-n3ncc(=O)[nH]c3=O)cc2Cl)ccc1O` registered a Ki of 0.64 nM. Regarding `CSc1ccc(Oc2c(C)cc(-n3ncc(=O)[nH]c3=O)cc2C)cc1C`, affinity was put at a Ki of 2 nM. This Ki lies about 3.1-fold higher than the previous one. As for `O=C(c1cc(Oc2c(Cl)cc(-n3ncc(=O)[nH]c3=O)cc2Cl)ccc1O)N1CC2CCC1C2` (racemic; endo), the inhibitory constant (Ki) is 0.16 nM. In turn, `O=c1cnn(-c2cc(Cl)c(Oc3ccc(O)c(S(=O)(=O)NC4CCCCC4)c3)c(Cl)c2)c(=O)[nH]1` returned an inhibitory constant (Ki) of 0.46 nM. Still for that read-out and setting: as for `CC1(C)C2CCC(NC(=O)c3cc(Oc4c(Cl)cc(-n5ncc(=O)[nH]c5=O)cc4Cl)ccc3O)C1C2` (stereo in doubt; 9i), the figure is 0.06 nM.

With `Cc1cc(-n2ncc(=O)[nH]c2=O)cc(Cl)c1Oc1ccc(O)c(S(=O)(=O)N2CCCCC2)c1`, the Ki amounted to 0.13 nM. For `Cc1cc(-n2ncc(=O)[nH]c2=O)cc(Cl)c1Oc1ccc(O)c(C(=O)N2CCCCC2)c1`, the Ki amounted to 1.9 nM.

The compound `O=c1cnn(-c2cc(Cl)c(Oc3ccc(O)c(S(=O)(=O)NC4CCC4)c3)c(Cl)c2)c(=O)[nH]1` yielded a Ki of 0.4 nM. `O=C(c1cc(Oc2c(Cl)cc(-n3ncc(=O)[nH]c3=O)cc2Cl)ccc1O)N1CCCCC1` came in with a Ki of 0.63 nM. This Ki is about 1.6-fold higher than that of the compound before.

As to `O=C(c1cc(Oc2c(Cl)cc(-n3ncc(=O)[nH]c3=O)cc2Cl)ccc1O)N1CCOCC1`, the affinity, expressed as Ki, was 0.72 nM.

The compound `O=c1cnn(-c2cc(Cl)c(Oc3ccc(O)c(S(=O)(=O)N4C5CCC4CC4(C5)OCCO4)c3)c(Cl)c2)c(=O)[nH]1` returned a Ki of 0.31 nM. Compared with the last compound, the Ki is about 2.3-fold lower. With `O=C(NC1CCCCC1)c1cc(Oc2c(Cl)cc(-n3ncc(=O)[nH]c3=O)cc2Cl)ccc1O`, the inhibition constant Ki stood at 0.07 nM. Take `Cc1cc(-n2ncc(=O)[nH]c2=O)cc(C)c1Oc1ccc(O)c(S(=O)(=O)N2CCCCC2)c1`: the Ki was 0.46 nM. Take `Cc1cc(-n2ncc(=O)[nH]c2=O)cc(Cl)c1Oc1ccc(O)c(S(=O)(=O)N2CCOCC2)c1`: the inhibition constant Ki worked out at 27 nM. Turning to `O=c1cnn(-c2cc(Cl)c(Oc3ccc(O)c(S(=O)(=O)Nc4ccccc4)c3)c(Cl)c2)c(=O)[nH]1`, the affinity corresponds to a Ki of 0.1 nM. For `Cc1cc(N2CCCNC2=O)cc(C)c1Oc1ccc(O)c(C(C)C)c1`, the inhibition constant (Ki) was found to be 10000 nM.

In turn, `Cc1cc(-n2ncc(=O)[nH]c2=O)cc(Cl)c1Oc1ccc(O)c(S(=O)(=O)N2CCN(C)CC2)c1` registered a Ki of 13 nM. This Ki lies about 770-fold lower than the previous one. In turn, `O=c1cnn(-c2cc(Cl)c(Oc3ccc(O)c(S(=O)(=O)n4ccc5ccccc54)c3)c(Cl)c2)c(=O)[nH]1` showed a Ki of 0.23 nM. This Ki lies about 57-fold lower than the previous one. On to `O=C(c1cc(Oc2c(Cl)cc(-n3ncc(=O)[nH]c3=O)cc2Cl)ccc1O)N1CC2CCC1C2` (racemic; exo), for which the affinity, expressed as Ki, was 0.59 nM.

The compound `O=c1cnn(-c2cc(Cl)c(Oc3ccc(O)c(S(=O)(=O)N4CCCCC4)c3)c(Cl)c2)c(=O)[nH]1` gave an inhibition constant (Ki) of 0.02 nM.

The target of another assay is T1, Thyroid hormone receptor beta. The experiment in a line: Effective concentration binding towards TR-beta-1 in E25B2 cells (agonistic activity).
With `O=c1cnn(-c2cc(Cl)c(Oc3ccc(O)c(S(=O)(=O)N4C5CCC4CC4(CCCO4)C5)c3)c(Cl)c2)c(=O)[nH]1` (stereo unspecified), the EC50 (commonly the midpoint of the concentration-response curve) came out at 62 nM.

Another assay concerns the target T2, Thyroid hormone receptor alpha (Homo sapiens, UniProt P10827).
T2 sequence (P10827 whole entry): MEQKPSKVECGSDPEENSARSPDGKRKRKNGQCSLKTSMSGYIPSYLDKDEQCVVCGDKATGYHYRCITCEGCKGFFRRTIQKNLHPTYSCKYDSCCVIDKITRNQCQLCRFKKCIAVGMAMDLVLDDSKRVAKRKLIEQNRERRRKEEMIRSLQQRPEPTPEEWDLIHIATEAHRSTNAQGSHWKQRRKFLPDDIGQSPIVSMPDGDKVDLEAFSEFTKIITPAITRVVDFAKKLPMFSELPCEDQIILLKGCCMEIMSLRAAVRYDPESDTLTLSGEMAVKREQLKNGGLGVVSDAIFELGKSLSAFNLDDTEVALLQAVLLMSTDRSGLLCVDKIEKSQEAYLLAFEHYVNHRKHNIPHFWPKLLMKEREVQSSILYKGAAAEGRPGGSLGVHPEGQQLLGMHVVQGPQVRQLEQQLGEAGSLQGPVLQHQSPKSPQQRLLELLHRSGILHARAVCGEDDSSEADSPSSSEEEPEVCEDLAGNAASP
Description: Effective concentration binding towards TRalpha in E25B2 cells (agonistic activity)
In the case of `O=c1cnn(-c2cc(Cl)c(Oc3ccc(O)c(S(=O)(=O)N4C5CCC4CC4(CCCO4)C5)c3)c(Cl)c2)c(=O)[nH]1` (stereo unspecified), a half-maximal effect (EC50) was put at 1500 nM. That is a single-digit micromolar value. Turning to `CC1(C)C2CCC(NC(=O)c3cc(Oc4c(Cl)cc(-n5ncc(=O)[nH]c5=O)cc4Cl)ccc3O)C1C2` (stereo in doubt; 9i), the concentration giving a half-maximal response (EC50) stood at 12 nM. This EC50 lies about 120-fold lower than the previous one.
